Each structure is given as a SMILES string. Active and inactive are the calls of the source. The calls are words filed in the database; no cut-off is given here.

What is called T/C is the result in the treated group divided by that in the control group, in per cent.

The subject of one assay is P388. In words: In vivo antitumor activity against mouse P388 cells at 1 mg/kg relative to control. In kind it is functional.
The subject of a further assay is KB. In words: Cytotoxicity against human KB cells. Format: functional, cell-based.

Regarding `CC[C@]12C[C@H]3CN(CCc4c([nH]c5ccccc45)[C@@](C(=O)OC)(c4cc5c(cc4OC)N(C)[C@H]4[C@@](O)(C(=O)OC)[C@H](OC(C)=O)[C@]6(CC)C=CCN7CC[C@]54[C@@H]76)[C@@H]3O1)C2` [CATHARANTHAMINE], in the assay on P388, the T/C was 176%. Besides, the outcome with KB was Active.

The values above are taken from ChEMBL document CHEMBL1151362, “Catharanthus alkaloids. XXXIV. Catharanthamine, a new antitumor bisindole alkaloid from Catharanthus roseus” (1981).
